# Assay results from US20150368248A1, “2-SUBSTITUTED-6-BIARYLMETHYLAMINO-9-CYCLOPENTYL-9H-PURINE DERIVATIVES, USE THEREOF AS MEDICAMENTS, AND PHARMACEUTICAL COMPOSITIONS” (UNIVERZITA PALACKEHO V OLOMOUCI, priority 2013, published 2015).
# Experiments:
# [1] = tested on: caspases-3/7 in Hep3B carcinoma cells; assay: Caspase-3/7 activity in lysates of treated cells (Example 33); format: cell-based, human; settings: 24 h treatment, concentration of 3xIC50
# Method: Measurements of proapoptotic properties of BP14 were based on quantification of enzymatic activities of caspases-3/7. For caspase assays, treated cells were harvested by centrifugations and homogenized in an extraction buffer (10 mM KCl, 5 mM Hepes, 1 mM EDTA, 1 mM EGTA, 0.2% CHAPS, inhibitors of proteases, pH 7.4) on ice for 20 min. The homogenates were clarified by centrifugation at 10,000 g for 20 min at 4° C., then proteins were quantified by the Bradford method and diluted to the same concentration. Lysates were then incubated for 5 h with 100 μM Ac-DEVD-AMC as substrate (Sigma-Aldrich) in an assay buffer (25 mM PIPES, 2 mM EGTA, 2 mM MgCl2, 5 mM DTT, pH 7.3). The fluorescence of the product was measured using a Fluoroskan Ascent microplate reader (Labsystems, Helsinki, Finland) at 346 nm/442 nm (ex/em).
# [2] = tested on: primary human hepatocytes (PHHs); assay: MTT cell viability assay (Example 40); format: cell-based; settings: Hepatocyte
# Method: Non-neoplastic tissue samples from liver resections were obtained from patients undergoing partial hepatectomy for metastatic liver tumors of colorectal cancer. Experimental procedures were performed according to the guidelines of the charitable state controlled foundation HTCR (Human Tissue and Cell Research, Regensburg, Germany), with the informed patient's consent approved by the local ethical committee of the University of Regensburg. PHHs were isolated using a modified two-step EGTA/collagenase perfusion procedure as described previously (33). Viability of isolated PHHs was determined by trypan blue exclusion and cells with a viability of more than 85% were used for further work. Cells were plated on collagen-coated plates (BD Biosciences, San Jose, USA) at a density of 1.2×10^5 cells/cm^2. The medium consisted of DMEM with 10% FCS, 2 mM L-glutamine, […], 100 U/ml penicillin and supplements as follows: 125 mU/ml insulin, 7.3 ng/ml glucagon and 0.8 μg/ml hydrocortisone. Cells were incubated at 37° C. in a humidified incubator with 5% CO2 and media were changed daily.
# Cell viability was determined using the 3-(4,5 dimethylthiazol-2-yl)-2,5-diphenyltetrazolium bromide (MTT) assay. Briefly, cells were seeded in triplicates at a density of 6×10^3 cells per well. […] The absorbance was measured at 620 nm by employing a microplate reader (Asys HiTech, Salzburg, Austria). […]
# CDK1/CDK2 = assay: Kinase inhibition assays using cell-free extracts; format: biochemical, human; settings: 0.03 μM
# Method: Whole cell extracts were prepared by lysing Hep3B cells with a buffer containing 20 mM Tris pH 8.0, 100 mM NaCl, 1 mM EDTA and 0.5% NP-40. 100 μg of extract was used for immunoprecipitation at 4° C. for 4 hours either with 1 μg of the anti-CDK2 antibody M2 (Santa Cruz Biotechnology, Santa Cruz, USA) or with 1 μg of the anti-cyclin B1 antibody GNS1 (Santa Cruz Biotechnology, Santa Cruz, USA). The precipitated proteins were washed three times with lysis buffer followed by one wash with the kinase buffer (50 mM HEPES pH 7.5, 10 mM MgCl2 and 1 mM DTT) and subsequently resuspended in 20 μl kinase buffer containing 5 μCi [γ-^32P]ATP
# (PerkinElmer, Santa Clara, USA), 1 μg histone H1 (New England Biolabs, Ipswich, USA) and the respective concentration of inhibitor. After incubation for 60 minutes at 30° C., the supernatant was boiled in sample buffer containing 60 mM Tris/HCl pH6.8, 10% Glycerol, 2% SDS, 5% β-mercaptoethanol, 0.02% Bromophenol Blue. The proteins were separated by SDS-PAGE and blotted onto nitrocellulose membrane. Thereafter, the membrane was stained with Ponceau S to check equal loading and analyzed by autoradiography.
# HepG2 and PLC cells = assay: Flow cytometry of cellular DNA content; format: cell-based, human; settings: 24 hours
# Method: The analysis of cellular DNA content was performed with a multicolor BD LSRFortessa cell analyzer (Becton Dickinson, Franklin Lakes, USA). Prior to the cytofluorometric measurement, about 5×10^5 cells were washed with phosphate buffered saline (PBS), fixed in 70% ethanol, washed again with PBS and treated with 100 μg RNAse A/50 μg propidium iodide per ml for 10 minutes to stain cellular DNA. The percentage of cells in the various cell cycle positions were calculated using a software package from the same manufacturer.
# DEN-induced hepatoma = assay: Diethylnitrosamine-induced liver cancer and drug intervention; format: in vivo, C57BL/6J mice; settings: 3 cycles of 10 days, i.p., breaks of 7 days
# Method: To initiate tumor development in the liver, 14-day-old C57BL/6J mice were intraperitoneally injected with a single dose of diethylnitrosamine (DEN, 25 mg/kg). After 8 month, pharmacological intervention was administrated in DEN-induced mice by 3 cycles of treatment with compounds for 10 days and a release from compounds for 7 days between the cycles. Either 5 mg/kg BA-12 or 1 mg/kg BP-14 was intraperitoneally injected in 100 μl of 0.01% DMSO. Control mice obtained 100 μl solvent only. Thereafter, mice were sacrificed and livers were fixed in 4% formaldehyde. Two researchers independently scored the diameters of neoplasia that could be monitored at the liver surface. Cancerous nodules with a diameter of up to 1 cm, covering more than 97% of all visible hepatomas, were included into the analysis. […] All animal experiments were performed according to the Austrian guidelines for animal care and protection.
structure (smiles),measurement,setting,value
"NC1CCC(Nc2nc(NCc3ccc(-c4ccco4)nc3)c3ncn(C4CCCC4)c3n2)CC1 (centres unmarked) [BP14, N^2-(4-amino-cyclohexyl)-9-cyclopentyl-N^6-(6-furan-2-yl-pyridin-3-ylmethyl)-9H-purine-2,6-diamine]",activity of caspase-3/7 compared with the untreated control,[1],twenty-fold increase
same,IC50,[2],20.1 µM
same,CDK1/CDK2 activity in cell-free extracts,CDK1/CDK2,significantly reduced CDK1/CDK2 activity
same,cell cycle distribution,HepG2 and PLC cells,accumulation of HepG2 and PLC cells in the G2 phase
same,decrease of tumor nodules as compared to untreated control mice,DEN-induced hepatoma,1.3 fold
